From patent US20130337052A1, “System and Method of Reducing Impairment of Alertness, Concentration, Motivation, and Creativity Caused by Medication” (priority 2012, published 2013)

Assays:
CB2 receptors = CB2 receptors (Homo sapiens, UniProt P34972); details: relative to THC; cited from earlier work
CB1 receptors = CB1 receptors (Homo sapiens, UniProt P21554); details: relative to THC; cited from earlier work
[1] = patients received up to 210 milligrams per day; cited from earlier work
[2] = Side effects reported by patients using a medication containing THC; type: in vivo, human; details: e.g. Marinol
Source text: Patients using cannabinoid medications 10 prescribed for the treatment of symptoms such as pain and experiencing the undesirable side effects of the cannabinoid medications may provide relief through the administration of lithium compounds 30. […] Patients also reported a lack of motivation and a reduction in creativity while taking the medication. As a result, the patients have been unable or unwilling to perform ordinary tasks, such as, e.g., tasks associated with the patient's employment. However, upon treatment with lithium compounds 30, the alertness, concentration, motivation, and creativity of the patients were restored. As a result, the patients were able to continue to work productively while using the cannabinoid-based medication.

[3] = lithium citrate syrup compared to lithium carbonate tablets; cited from earlier work
[4] = 150 milligrams per day; cited from earlier work

Sequence of CB1 receptors (P21554 whole entry): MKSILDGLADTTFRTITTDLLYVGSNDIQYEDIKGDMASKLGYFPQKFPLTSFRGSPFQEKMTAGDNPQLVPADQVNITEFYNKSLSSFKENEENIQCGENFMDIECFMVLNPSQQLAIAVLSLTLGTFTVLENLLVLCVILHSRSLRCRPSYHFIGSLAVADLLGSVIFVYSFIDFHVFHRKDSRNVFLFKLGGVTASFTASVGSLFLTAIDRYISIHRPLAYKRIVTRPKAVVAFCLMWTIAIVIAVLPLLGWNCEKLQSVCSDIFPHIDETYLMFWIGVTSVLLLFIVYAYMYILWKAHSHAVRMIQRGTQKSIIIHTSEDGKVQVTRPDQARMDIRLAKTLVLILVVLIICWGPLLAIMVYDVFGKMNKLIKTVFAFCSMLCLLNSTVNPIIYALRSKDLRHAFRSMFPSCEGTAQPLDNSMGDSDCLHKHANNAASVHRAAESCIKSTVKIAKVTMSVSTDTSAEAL
Sequence of CB2 receptors (P34972 whole entry): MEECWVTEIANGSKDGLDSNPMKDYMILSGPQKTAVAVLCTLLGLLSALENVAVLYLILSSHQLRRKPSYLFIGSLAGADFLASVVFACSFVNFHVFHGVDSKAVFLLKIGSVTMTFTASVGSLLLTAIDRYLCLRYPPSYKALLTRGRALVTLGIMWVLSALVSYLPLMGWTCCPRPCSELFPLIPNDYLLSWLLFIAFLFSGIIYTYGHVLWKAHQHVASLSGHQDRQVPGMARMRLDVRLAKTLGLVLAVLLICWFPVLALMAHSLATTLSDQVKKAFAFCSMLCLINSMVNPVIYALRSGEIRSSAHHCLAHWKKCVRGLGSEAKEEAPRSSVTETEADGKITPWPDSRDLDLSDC

CCCCCc1cc(O)c2c(c1)OC(C)(C)c1ccc(C)cc1-2 [CBN, cannabinol]
agonist effect on the CB2 receptor compared with THC (CB2 receptors): weaker agonist effect
agonist effect on the CB1 receptor compared with THC (CB1 receptors): weaker agonist effect

CCCCCc1cc(O)c2c(c1)OC(C)(C)[C@@H]1CCC(C)=C[C@@H]21 [THC, (−)-trans-Δ9-tetrahydrocannabinol]
toxic effects in clinical studies [1]: without toxic effects
side effects experienced by patients [2]: difficulty staying awake and maintaining concentration

O=C([O-])CC(O)(CC(=O)[O-])C(=O)[O-].[Li+].[Li+].[Li+] [lithium citrate]
rate at which lithium enters the body [3]: more rapidly

O=C([O-])c1cc(=O)[nH]c(=O)[nH]1.[Li+] [lithium orotate]
effect in the treatment of alcohol addiction [4]: beneficial
